Test results reported in patent US9162992B2, “Compounds and compositions for treatment of breathing control disorders or diseases” (GALLEON PHARMACEUTICALS, INC., priority 2010, dated 2015).
“And” between values parts separate entries of the source, which are not always exact repeats. Equal entries are not always repeated. Structures can show the parent of a compound that is named as a salt.

How the values were obtained:
[1] = GMP drug product stability of final formulation (25° C./60% RH and 2-8° C.), degradant CLXXVIII; format: physicochemical
From the text: A batch of (XXXVI) formulated for clinical use was placed under formal GMP stability (Tables 20I.1 and […]).

[2] = target: T1, BK potassium channel expressed in GH3 cells (Rattus norvegicus, UniProt Q62976); test: BK potassium channel current in GH3 cells, inside-out patches; format: cell-based; details: Almirite 1 (mM as printed)
T1 construct: endogenous in cells; host or cells: GH3 cells
T1 sequence (Q62976 whole entry): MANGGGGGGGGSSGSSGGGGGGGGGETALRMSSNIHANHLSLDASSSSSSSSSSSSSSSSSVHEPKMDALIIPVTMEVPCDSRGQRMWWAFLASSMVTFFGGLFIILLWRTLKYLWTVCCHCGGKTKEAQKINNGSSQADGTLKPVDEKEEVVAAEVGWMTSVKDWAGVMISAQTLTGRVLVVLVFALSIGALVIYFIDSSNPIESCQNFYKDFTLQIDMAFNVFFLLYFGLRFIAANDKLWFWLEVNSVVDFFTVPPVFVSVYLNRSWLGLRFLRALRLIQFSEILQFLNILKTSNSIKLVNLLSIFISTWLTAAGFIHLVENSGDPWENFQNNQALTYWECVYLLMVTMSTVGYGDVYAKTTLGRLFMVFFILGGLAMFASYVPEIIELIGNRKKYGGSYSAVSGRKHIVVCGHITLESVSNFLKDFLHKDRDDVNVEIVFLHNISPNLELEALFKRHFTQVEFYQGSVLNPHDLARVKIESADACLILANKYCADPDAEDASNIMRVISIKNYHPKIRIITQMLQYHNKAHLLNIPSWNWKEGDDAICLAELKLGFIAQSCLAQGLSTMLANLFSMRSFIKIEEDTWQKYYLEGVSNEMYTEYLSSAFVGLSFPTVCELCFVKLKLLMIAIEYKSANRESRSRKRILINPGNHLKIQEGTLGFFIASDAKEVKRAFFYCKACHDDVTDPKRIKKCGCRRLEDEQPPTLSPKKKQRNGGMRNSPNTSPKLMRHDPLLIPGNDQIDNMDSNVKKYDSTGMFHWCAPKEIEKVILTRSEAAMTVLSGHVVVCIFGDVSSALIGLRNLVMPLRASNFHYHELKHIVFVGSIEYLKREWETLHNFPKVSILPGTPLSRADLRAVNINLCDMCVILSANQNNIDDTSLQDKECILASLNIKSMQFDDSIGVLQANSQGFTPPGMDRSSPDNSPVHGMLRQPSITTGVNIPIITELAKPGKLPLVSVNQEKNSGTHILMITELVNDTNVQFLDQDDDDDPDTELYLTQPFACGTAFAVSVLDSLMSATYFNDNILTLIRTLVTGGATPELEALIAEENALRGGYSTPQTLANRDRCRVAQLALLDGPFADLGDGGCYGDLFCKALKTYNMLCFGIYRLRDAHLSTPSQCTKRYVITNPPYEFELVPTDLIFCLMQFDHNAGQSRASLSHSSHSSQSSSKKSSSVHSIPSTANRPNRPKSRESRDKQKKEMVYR
Protocol: Stock solutions of the test article were prepared in dimethylsulfoxide (DMSO) and stored frozen. Test article concentrations were prepared fresh daily by diluting stock solutions into a physiological saline solution (composition in mM): KCl, 125; CaCl2, 8.5; HEPES, 10; EGTA, 11.25; pH adjusted to 7.2 with KOH (prepared weekly and refrigerated until used). All test solutions contained 0.1% DMSO.
GH3 cells were grown in culture using standard procedures. Ionic currents were measured from inside-out patches of GH3 cells. Channel activity was monitored in symmetrical K^+ conditions with a holding potential of −60 mV. Activities before and in the presence of each concentration of test articles were recorded for ≧3 minutes, respectively.
Data acquisition and analyses were performed using the suite of pCLAMP (Ver. 8.2) programs (MDS-AT, Sunnyvale, Calif. Percent inhibition by test article was calculated using the following equation: 100*(NPocontrol−NPotest)/NPocontrol Results

[3] = tested on: spontaneously breathing rats; test: Minute ventilation (MV) and cardiovascular parameters in naive rats; format: in vivo, rat; parameters: unit not given here
Protocol: All surgical procedures were performed under anesthesia induced by 2% isoflurane in compressed medical grade air. With rats in supine position, the right femoral vein was catheterized using polyethylene tubing (PE-50). This catheter was used for fluid and drug administration. Simultaneously, the right femoral artery was also catheterized for monitoring blood pressure and heart rate. In order to measure the respiratory parameters in spontaneously breathing rats, trachea was intubated using 13 gauge tracheal tube (2.5 mm ID, Instech Solomon, Pa.).
After establishing a stable base-line at 1.5% isoflurane, compounds (typically at a dose of 1 mpk) were administered IV, and ventilatory parameters were generated from spontaneously breathing rats, along with cardiovascular output (mean arterial pressure (MAP) and heart rate). Maximum peak minute ventilatory (MV) responses (MPR), along with changes in minute ventilation versus baseline (AMV) were obtained as shown in the tables below.

rat KCNK3/TASK-1 = target: T2, rat KCNK3/TASK-1 (Rattus norvegicus, UniProt O54912); test: Thallium flux through rat TASK-1 (KCNK3-CHO cells); format: cell-based; details: Tl+ flux; 3 nM to 30 μM; read-out: rTASK-1 IC50
T2 construct: expressed in transfected cells; host or cells: CHO cells (tetracycline-inducible)
T2 sequence (O54912 whole entry): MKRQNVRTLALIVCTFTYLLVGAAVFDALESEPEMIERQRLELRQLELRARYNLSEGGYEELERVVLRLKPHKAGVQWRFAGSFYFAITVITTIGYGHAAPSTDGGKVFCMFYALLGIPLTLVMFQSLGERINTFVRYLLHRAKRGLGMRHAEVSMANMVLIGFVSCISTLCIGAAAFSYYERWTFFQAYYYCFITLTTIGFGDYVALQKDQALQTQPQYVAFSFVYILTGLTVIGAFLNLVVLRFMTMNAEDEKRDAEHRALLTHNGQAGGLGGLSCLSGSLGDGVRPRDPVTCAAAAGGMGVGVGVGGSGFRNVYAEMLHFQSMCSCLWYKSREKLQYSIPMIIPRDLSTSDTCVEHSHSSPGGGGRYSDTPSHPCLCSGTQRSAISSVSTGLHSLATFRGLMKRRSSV
Protocol: (§1) CHO cells expressing recombinant tetracycline-inducible rat KCNK3/TASK-1 (KCNK3-CHO cells) were plated in poly-D-lysine coated 384-well plates at a density of 6,000 cells/well (50 μl/well of 120,000 cells/mL) and allowed to incubate for 72 hrs in the presence of 5% CO2 and 1 μg/mL tetracycline at 30° C. HEK cells expressing recombinant tetracycline-inducible human KCNK9/TASK-3 (KCNK9-HEK cells) were plated at a density of 15,000 cells per well (50 μl/well, 300,000 cells/mL) and incubated overnight at 37° C. and 5% CO2 in the presence of 1 μg/mL tetracycline.
(§2) Drug plates were generated from 10 mM 100% DMSO mother plates. Compounds were transferred to 384-well drug plates and titrated with sequential 1:3 dilutions in 100% DMSO for a total of 9 dilutions. A dilution plate is made by taking 2.4 μl from the mother plate and adding to […] of assay buffer for a 12% DMSO dilution plate. From this dilution plate, a final daughter plate is generated by taking 1 μA of the dilution plate and adding to 40 μA of assay buffer for a final DMSO concentration of 0.3%. Each compound was evaluated in duplicate and the concentration range evaluated was 3 nM to 30 μM.
(§3) When thallium was added to extracellular solution with a stimulus to open channels, Tl^+ flowed down its concentration gradient into the cells and channel activity was detected with an indicator dye, FluxOR™, that increased in cytosolic fluorescence. The FluxOR™ indicator dye was loaded into cells as a membrane permeable acetoxymethyl ester. On the day of each assay, FluxOR™ assay buffer was made fresh from Hank's Balanced Saline Solution (HBSS) buffered with 20 mM HEPES and pH adjusted to 7.4 with NaOH. Dye loading solution was prepared per manufacturer's instructions, and 25 μl of dye solution applied to each well with a multidropper after plating medium was removed manually from cells. Dye was allowed to load for 90 minutes at room temperature in the dark.
(§4) After the 90 min dye loading incubation and subsequent manual dye removal, 24 μl of the drug daughter plate was transfer to cell plates by a cybi-well system and then incubated at room temperature for 20 minutes to allow for equilibration within wells. Stimulation buffer was prepared from 5× chloride-free buffer, thallium, and potassium sulfate containing 5 times the desired final assay concentration of 10 mM K^+ 2.8 mM Tl^+. Cell plates were then transferred to an FDSS 6000 kinetic imaging plate reader (Hamamatsu). Fluorescence at 525 nm (excitation 488 nm) was measured for 10 seconds at 1 Hz to establish baseline for the entire plate. After baseline was established, 6 μl/well of stimulation buffer was added and fluorescence signal recorded for another 140 seconds.
(§5) From the fluorescence signals in the absence and presence of Galleon compounds, Inhibitory concentration curves were plotted and IC50 values were estimated using a curve fitting algorithm.

human KCNK9/TASK-3 = target: T3, human KCNK9/TASK-3 (Homo sapiens, UniProt Q9NPC2); test: Thallium flux through human TASK-3 (KCNK9-HEK cells); format: cell-based; details: Tl+ flux; 3 nM to 30 μM; read-out: hTASK-3 IC50
T3 construct: expressed in transfected cells; host or cells: HEK cells (tetracycline-inducible)
T3 sequence (Q9NPC2 whole entry): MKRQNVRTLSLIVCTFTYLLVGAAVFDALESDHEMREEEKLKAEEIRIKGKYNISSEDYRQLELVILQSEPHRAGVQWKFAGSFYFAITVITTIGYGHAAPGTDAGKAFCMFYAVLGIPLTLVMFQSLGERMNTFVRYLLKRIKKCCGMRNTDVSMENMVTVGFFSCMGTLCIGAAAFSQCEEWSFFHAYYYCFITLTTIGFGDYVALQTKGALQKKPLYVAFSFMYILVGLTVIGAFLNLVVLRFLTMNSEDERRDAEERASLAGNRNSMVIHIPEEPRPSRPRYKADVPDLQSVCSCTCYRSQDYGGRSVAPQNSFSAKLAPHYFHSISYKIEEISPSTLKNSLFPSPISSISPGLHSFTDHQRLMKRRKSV
Protocol: as §1, §2, §3, §4, §5

[4] = Solubility in solvents and IV solutions; format: physicochemical; details: water, thermodynamic from solid, Solubility
Protocol: The solubility of (XXXXVI) and XXXV was evaluated in various solvents and IV solutions. Due to limits on the API supply at the time the study was conducted, most of the solvent systems were evaluated to a level of only 100 mg/mL even if the solution was not saturated at this level. Only in water was an attempt made to reach saturation solubility, regardless of how high that solubility might be. Solubility of the salt/free base in each solvent was evaluated in duplicate.
For solubility in water, drug was added with intermittent shaking to ensure that excess undissolved drug is present indicating saturation […]. The filtrates were diluted appropriately and analyzed for (XXXV) concentration by HPLC.

[5] = Table 8, 1 mpk, 20% HPβCD, pH 4

CCCNc1nc(O)nc(NCCC)n1 [(CLXXVIII)]
Level of Degradant (CLXXVIII) in GMP lot# 041I0511 ([1]; 5° C., amb. RH, Inverted, T = 1 month): 0.03%
Level of Degradant (CLXXVIII) in GMP lot# 041I0511 ([1]; 5° C., amb. RH, Inverted, T = 3 month): 0.06%
Level of Degradant (CLXXVIII) in GMP lot# 041I0511 ([1]; 5° C., amb. RH, Inverted, T = 6 month): 0.08%
Level of Degradant (CLXXVIII) in GMP lot# 041I0511 ([1]; 5° C., amb. RH, Inverted, T = 9 month): 0.11%
Level of Degradant (CLXXVIII) in GMP lot# 041I0511 ([1]; 5° C., amb. RH, Upright, T = 6 month): 0.08%
Level of Degradant (CLXXVIII) in GMP lot# 041I0511 ([1]; Release Testing, Drug Product Production lot Sample Pull Beg.): 0.00%
Level of Degradant (CLXXVIII) in GMP lot# 041I0511 ([1]; Release Testing, Drug Product Production lot Sample Pull End): 0.00%
Level of Degradant (CLXXVIII) in GMP lot# 041I0511 ([1]; Release Testing, Drug Product Production lot Sample Pull Mid.): 0.00%

C=CCNc1nc(NCC=C)nc(N2CCN(C(c3ccc(F)cc3)c3ccc(F)cc3)CC2)n1 [Almirite, almitrine, reference compound]
Inhibition (%), Average [2]: 94.7%
NPo, Average [2]: 0.0010
Inhibition (%) ([2]; single patch): 97.9% and 91.5%
NPo (total channel open probability) ([2]; single patch): 0.0009 and 0.0011

CCCNc1nc(NN(C)C)c2ccn(C)c2n1 [CLXX, N,N-Dimethyl-N′-(2-n-propylamino-7-methyl-pyrrolo[2,3d]pyrimidin-4-yl)-hydrazine]
MV DMV ([3]; Table 8, 1 mpk, 15/65/20, pH 5): 89
MV MPR ([3]; Table 8, 1 mpk, 15/65/20, pH 5): 167
MV DMV [3, 5]: 83
MV MPR [3, 5]: 175
IC50 (rat KCNK3/TASK-1): 160 nM
IC50 (human KCNK9/TASK-3): > 30000 nM

CCCNc1nc(NCCC)nc(N(C)OCC2CC2)n1 [XCI, N-(4,6-Bis-n-propylamino-[1,3,5]triazin-2-yl)-O-cyclopropylmethyl-N-methyl-hydroxylamine]
MV MPR ([3]; 1 mpk IV, 20% HPβCD, pH 4): 261
MV ΔMV ([3]; 1 mpk IV, 20% HPβCD, pH 4): 152
MV DMV [3, 5]: 152
MV MPR [3, 5]: 261

CCCNc1nc(NCCC)nc(N(C)NC)n1 [XLIX, N-(4,6-Bis-n-propylamino-[1,3,5]triazin-2-yl)-N,N′-dimethyl-hydrazine]
MV MPR ([3]; 1 mpk IV, 20% HPβCD, pH 5): 338
MV ΔMV ([3]; 1 mpk IV, 20% HPβCD, pH 5): 216

CCCNc1nc(NCCC)nc(NN(C)C)n1 [XLVI, N-(4,6-Bis-n-propylamino-[1,3,5]triazin-2-yl)-N′,N′-dimethylhydrazine]
IC50 (rat KCNK3/TASK-1): 600 nM
IC50 (human KCNK9/TASK-3): > 30000 nM

CCCNc1nc(N)nc(N(C)OC)n1 [XLVII, 6-(Methoxy(methyl)amino)-N2-propyl-1,3,5-triazine-2,4-diamine]
MV MPR ([3]; 1 mpk IV, 20% HPβCD, pH 5): 150.73
MV ΔMV ([3]; 1 mpk IV, 20% HPβCD, pH 5): 61.48

CCCNc1nc(NCCC)nc(N(C)O)n1 [XLVIII, N-(4,6-Bis-n-propylamino-[1,3,5]triazin-2-yl)-N-methyl-hydroxylamine]
MV MPR ([3]; 1 mpk IV, 15/65/20, pH 5): 114
MV ΔMV ([3]; 1 mpk IV, 15/65/20, pH 5): 30.13

CNc1nc(NC)nc(N(C)OC)n1 [XX, N-(4,6-Bis-methylamino-[1,3,5]triazin-2-yl)-N,O-dimethyl-hydroxylamine hydrochloride]
MV MPR ([3]; 1 mpk IV, 20% HPβCD, pH 4-6): 213
MV ΔMV ([3]; 1 mpk IV, 20% HPβCD, pH 4-6): 60

CCNc1nc(NCC)nc(N(C)OC)n1 [XXII, N-(4,6-Bis-ethylamino-[1,3,5]triazin-2-yl)-N,O-dimethyl-hydroxylamine hydrochloride]
MV MPR ([3]; 1 mpk IV, 20% HPβCD, pH 4-6): 252
MV ΔMV ([3]; 1 mpk IV, 20% HPβCD, pH 4-6): 130

CON(C)c1nc(NCC(C)C)nc(NCC(C)C)n1 [XXIX, N-(Bis-4,6-(2-methylpropylamino)) [1,3,5]triazin-2-yl)-N,O-dimethyl-hydroxylamine hydrochloride]
MV MPR ([3]; 1 mpk IV, 20% HPβCD, pH 4-6): 253
MV ΔMV ([3]; 1 mpk IV, 20% HPβCD, pH 4-6): 161

CCCNc1nc(NCC2CC2)nc(N(C)OC)n1 [XXV, N-(4-Cyclopropylmethyl)-N-(6-n-propylamino) [1,3,5]triazin-2-yl)-N,O-dimethyl-hydroxylamine hydrochloride]
MV MPR ([3]; 1 mpk IV, 20% HPβCD, pH 4-6): 257
MV ΔMV ([3]; 1 mpk IV, 20% HPβCD, pH 4-6): 126
solubility [4]: ~210 µg/mL

CON(C)c1nc(NC2CC2)nc(NC2CC2)n1 [XXXIII, 4,6-Bis-N-cyclopropylamino-[1,3,5]triazin-2-yl)-N,O-dimethyl-hydroxylamine hydrochloride]
MV MPR ([3]; 1 mpk IV, 20% HPβCD, pH 4-6): 147
MV ΔMV ([3]; 1 mpk IV, 20% HPβCD, pH 4-6): 53

CON(C)c1nc(NCC(C)(C)C)nc(NCC(C)(C)C)n1.Cl [XXXI]
MV DMV [3, 5]: 43
MV MPR [3, 5]: 140
